For 17 compounds, IC50 results are on record in paper PMC11905336, “Pyrrole‐Tethered Bisbenzoxazole Derivatives: Apoptosis‐Inducing Agents Targeting Breast Cancer Cells” (Chemical Biology & Drug Design, 2025).

The subject of assay [1] is HDFa cell lines. The assay is described as follows: Cytotoxicity on healthy dermal fibroblasts (MTT / xCELLigence real-time cell analysis). Type of assay: cell-based. The note with it: Homo sapiens. On the procedure:
The cytotoxicity of these derivatives was also assessed in dermal fibroblast cells using xCELLigence analysis as detailed in the Supporting Information.
(§1) The human dermal fibroblast (HDFa) and human breast cancer cells (MCF‐7) were obtained from the American Type Culture Collection (ATCC; Manassas, VA, USA). Cells were cultured in RPMI medium (MCF‐7) and DMEM medium (HDFa) was supplemented with 10% FBS, 1% penicillin–streptomycin, 1% amphotericin, and 2.5% L‐glutamine at 37°C in a 5% CO2 incubator.
xCELLigence Real‐Time Cell Analysis. The xCELLigence system (Real‐Time Cell Analyzer (RTCA) Dual Plate (DP) (Roche Diagnostics GmbH, Penzberg)) was used for real‐time monitoring of cell viability without the need for labeling. A total of 1 × 10^4 HDFa cells were seeded into each well of the E‐plate, and the cell proliferation curve was monitored for 24 h. […] The Cell Index (CI) value was automatically measured every hour for each well using RTCA Software (version 1.2.1) (Yetkin et al. [2021]; Yıldırım et al. [2022]).

Assay [2] concerns MCF‐7 cell lines. The assay is described as follows: MTT assay, cytotoxicity on MCF-7 cells. Type of assay: cell-based, human. The note with it: Homo sapiens, MTT. On the procedure: The cytotoxic effects of PTB derivatives on MCF‐7 breast cancer cells were evaluated using the MTT assay at various concentrations (100 nM, 1 μM, 10 μM, 50 μM, and 100 μM).
as §1
MTT Method. The MTT method is used to detect and quantify living organisms cultured with the method colorimetrically. This method relies on intact mitochondria cleaving the tetrazolium ring of the MTT dye. The MTT substance is absorbed and reduced to a colorful, water‐insoluble formazan by a mitochondria‐dependent reaction. Cell viability is measured based on the MTT reduction property, and the density of dye obtained from MTT analysis indicates the number of viable cells. In this study, cell viability was assessed using the MTT (0.5 mg/mL) solution that was added to each well. […] After adding properties to cultures, they were kept at 37°C for 24 h and overnight. Then, at 48 and 72 h after applying the molecules, 10 μL of MTT was added to each well and incubated under similar conditions for 4 h. Absorbance spectrophotometry was performed at a wavelength of 570 nm using the IC50 = [(control absorbents‐sample absorbents)/control absorbents] × 100 calculation method (Khorsandi et al. [2017]).

[3] abbreviates: 24 h, values greater than 100 not calculated, read-out: IC50 (μM) for HDFa cell lines, 24 h.
Where [4] appears, read: 72 h, values greater than 100 not calculated, read-out: IC50 (μM) for HDFa cell lines, 72 h.
The mark [5] stands for this setting: read-out: IC50 (μM) for HDFa cell lines, 48 h, values greater than 100 not calculated.
Setting [6] is: MCF7, read-out: IC50 (μM) for MCF‐7 cell lines, 48 h.
Setting [7] is: MCF7, 24 h, read-out: IC50 (μM) for MCF‐7 cell lines, 24 h.
The mark [8] stands for this setting: MCF7, 72 h, read-out: IC50 (μM) for MCF‐7 cell lines, 72 h.

Read-outs that look alike come from different tables or passages of the source. Where only a bound is given, the exact number is not on record here.

In the case of `Cc1ccc2oc(-c3ccc(-c4nc5ccc(C)cc5o4)[nH]3)nc2c1` [Compound B11, 6‐Methyl‐2‐(5‐(5‐Methylbenzo[d]Oxazol‐2‐Yl)‐1H‐Pyrrol‐2‐Yl)benzo[d]Oxazole], the IC50 is 95.3 ± 1.65 µM in assay [1] (setting [3]); 99.4 ± 1.23 µM in assay [1] (setting [4]); 97.4 ± 1.47 µM in assay [1] (setting [5]); 3.49 ± 0.68 µM in assay [2] (setting [6]); 4.55 ± 0.09 µM in assay [2] (setting [7]); 2.44 ± 1.19 µM in assay [2] (setting [8]).

On to `COc1ccc2oc(-c3ccc(-c4nc5cc(C)ccc5o4)[nH]3)nc2c1` [Compound B12, 5‐Methoxy‐2‐(5‐(5‐Methylbenzo[d]Oxazol‐2‐Yl)‐1H‐Pyrrol‐2‐Yl)benzo[d]Oxazole], for which the IC50 was at least 100 µM in assay [1] (setting [3]); at least 100 µM in assay [1] (setting [4]); at least 100 µM in assay [1] (setting [5]); 3.49 ± 0.46 µM in assay [2] (setting [6]); 3.88 ± 0.23 µM in assay [2] (setting [7]); 3.11 ± 0.87 µM in assay [2] (setting [8]).

`Clc1ccc2oc(-c3ccc(-c4nc5cc(Cl)ccc5o4)[nH]3)nc2c1` [Compound B5, 2,5‐Bis(5‐Chlorobenzo[d]Oxazol‐2‐Yl)‐1H‐Pyrrole]: the IC50 is 95.3 ± 1.92 µM in assay [1] (setting [3]); at least 100 µM in assay [1] (setting [4]); 97.5 ± 2.93 µM in assay [1] (setting [5]); 2.69 ± 2.01 µM in assay [2] (setting [6]); 3.73 ± 1.05 µM in assay [2] (setting [7]); 3.28 ± 1.32 µM in assay [2] (setting [8]).

Turning to `Cc1ccc2oc(-c3ccc(-c4nc5cc(C)ccc5o4)[nH]3)nc2c1` [Compound B2, 2,5‐Bis(5‐Methylbenzo[d]Oxazol‐2‐Yl)‐1H‐Pyrrole], the IC50 was 96.3 ± 1.03 µM in assay [1] (setting [3]); 99.3 ± 1.03 µM in assay [1] (setting [4]); 94.3 ± 1.56 µM in assay [1] (setting [5]); 4.5 ± 0.23 µM in assay [2] (setting [6]); 4.6 ± 2.2 µM in assay [2] (setting [7]); 2.06 ± 1.67 µM in assay [2] (setting [8]).

Take `Cc1ccc2oc(-c3ccc(-c4nc5cc(Cl)ccc5o4)[nH]3)nc2c1` [Compound B13, 5‐Chloro‐2‐(5‐(5‐Methylbenzo[d]Oxazol‐2‐Yl)‐1H‐Pyrrol‐2‐Yl)benzo[d]Oxazole]: the IC50 in assay [1] (setting [3]) is at least 100 µM; in assay [1] (setting [4]), at least 100 µM; in assay [1] (setting [5]) it was at least 100 µM; in assay [2] (setting [6]), 3.6 ± 0.56 µM; in assay [2] (setting [7]), 3.43 ± 1.56 µM; in assay [2] (setting [8]) it was 3.28 ± 1.36 µM.

Consider `Cc1ccc2nc(-c3ccc(-c4nc5cc(Cl)ccc5o4)[nH]3)oc2c1` [Compound B19, 5‐Chloro‐2‐(5‐(6‐Methylbenzo[d]Oxazol‐2‐Yl)‐1H‐Pyrrol‐2‐Yl)benzo[d]Oxazole], for which the IC50 in assay [1] (setting [3]) is 97.3 ± 1.34 µM; in assay [1] (setting [4]), 99.82 ± 0.89 µM; in assay [1] (setting [5]), 97.3 ± 1.2 µM; in assay [2] (setting [6]), 2.97 ± 1.12 µM; in assay [2] (setting [7]), 2.83 ± 0.87 µM; in assay [2] (setting [8]), 3.42 ± 1.12 µM.

In the case of `COC(=O)c1ccc2nc(-c3ccc(-c4nc5ccccc5o4)[nH]3)oc2c1` [Compound B10, Methyl 2‐(5‐(Benzo[d]Oxazol‐2‐Yl)‐1H‐Pyrrol‐2‐Yl)benzo[d]Oxazole‐6‐Carboxylate], the IC50 is 97.2 ± 1.76 µM in assay [1] (setting [3]); 99.9 ± 1.65 µM in assay [1] (setting [4]); 99.3 ± 1.34 µM in assay [1] (setting [5]); 2.88 ± 0.45 µM in assay [2] (setting [6]); 3.66 ± 1.34 µM in assay [2] (setting [7]); 2.44 ± 2.11 µM in assay [2] (setting [8]).

For the compound `c1ccc2oc(-c3ccc(-c4nc5ccccc5o4)[nH]3)nc2c1` [Compound B1, 2,5‐Bis(Benzo[d]Oxazol‐2‐Yl)‐1H‐Pyrrole], the IC50 was 89.4 ± 1.23 µM in assay [1] (setting [3]); at least 100 µM in assay [1] (setting [4]); 89.93 ± 0.43 µM in assay [1] (setting [5]); 2.96 ± 1.02 µM in assay [2] (setting [6]); 3.89 ± 1.15 µM in assay [2] (setting [7]); 3.13 ± 1.12 µM in assay [2] (setting [8]).

Take `Cc1ccc2oc(-c3ccc(-c4nc5ccccc5o4)[nH]3)nc2c1` [Compound B6, 2‐(5‐(Benzo[d]Oxazol‐2‐Yl)‐1H‐Pyrrol‐2‐Yl)‐5‐Methylbenzo[d]Oxazole]: the IC50 in assay [1] (setting [3]) is 98.5 ± 1.02 µM; in assay [1] (setting [4]), 99.1 ± 1.73 µM; in assay [1] (setting [5]) it was 99 ± 1.76 µM; in assay [2] (setting [6]) it was 3.09 ± 1.23 µM; in assay [2] (setting [7]), 2.81 ± 0.76 µM; in assay [2] (setting [8]) it was 3.02 ± 0.89 µM.

With `Cc1ccc2nc(-c3ccc(-c4nc5ccccc5o4)[nH]3)oc2c1` [Compound B7, 2‐(5‐(Benzo[d]Oxazol‐2‐Yl)‐1H‐Pyrrol‐2‐Yl)‐6‐Methylbenzo[d]Oxazole], the IC50 in assay [1] (setting [3]) was 97.3 ± 1.06 µM; in assay [1] (setting [4]) it was 100 ± 1.03 µM; in assay [1] (setting [5]), 98.5 ± 2 µM; in assay [2] (setting [6]) it was 4.68 ± 0.98 µM; in assay [2] (setting [7]), 4.08 ± 1.23 µM; in assay [2] (setting [8]), 2.53 ± 1.82 µM.

Take `Cc1ccc2nc(-c3ccc(-c4nc5ccc(C)cc5o4)[nH]3)oc2c1` [Compound B3, 2,5‐Bis(6‐Methylbenzo[d]Oxazol‐2‐Yl)‐1H‐Pyrrole]: the IC50 was at least 100 µM in assay [1] (setting [3]); at least 100 µM in assay [1] (setting [4]); at least 100 µM in assay [1] (setting [5]); 4.38 ± 0.98 µM in assay [2] (setting [6]); 3.3 ± 1.96 µM in assay [2] (setting [7]); 3.53 ± 0.65 µM in assay [2] (setting [8]).

As for `COc1ccc2oc(-c3ccc(-c4nc5ccc(C)cc5o4)[nH]3)nc2c1` [Compound B15, 5‐Methoxy‐2‐(5‐(6‐Methylbenzo[d]Oxazol‐2‐Yl)‐1H‐Pyrrol‐2‐Yl)benzo[d]Oxazole], the IC50 in assay [1] (setting [3]) was at least 100 µM; in assay [1] (setting [4]) it was at least 100 µM; in assay [1] (setting [5]), at least 100 µM; in assay [2] (setting [6]), 8.09 ± 2.06 µM; in assay [2] (setting [7]), 2.49 ± 1.64 µM; in assay [2] (setting [8]) it was 2.53 ± 1.56 µM.

As for `COC(=O)c1ccc2nc(-c3ccc(-c4nc5cc(Cl)ccc5o4)[nH]3)oc2c1` [Compound B20, Methyl 2‐(5‐(5‐Chlorobenzo[d]Oxazol‐2‐Yl)‐1H‐Pyrrol‐2‐Yl)benzo[d]Oxazole‐6‐Carboxylate], the IC50 in assay [1] (setting [3]) was 95.4 ± 1.94 µM; in assay [1] (setting [4]), at least 100 µM; in assay [1] (setting [5]), 97.3 ± 1.43 µM; in assay [2] (setting [6]) it was 3.25 ± 0.97 µM; in assay [2] (setting [7]), 2.97 ± 1.13 µM; in assay [2] (setting [8]), 3.07 ± 2.96 µM.

Consider `COc1ccc2oc(-c3ccc(-c4nc5cc(OC)ccc5o4)[nH]3)nc2c1` [Compound B4, 2,5‐Bis(5‐Methoxybenzo[d]Oxazol‐2‐Yl)‐1H‐Pyrrole], for which the IC50 in assay [1] (setting [3]) is 97.3 ± 1.34 µM; in assay [1] (setting [4]) it was at least 100 µM; in assay [1] (setting [5]) it was 99.23 ± 0.32 µM; in assay [2] (setting [6]) it was 4.19 ± 1.86 µM; in assay [2] (setting [7]), 4.56 ± 1.56 µM; in assay [2] (setting [8]) it was 3.11 ± 0.56 µM.

As for `COc1ccc2oc(-c3ccc(-c4nc5cc(Cl)ccc5o4)[nH]3)nc2c1` [Compound B17, 5‐Chloro‐2‐(5‐(5‐Methoxybenzo[d]Oxazol‐2‐Yl)‐1H‐Pyrrol‐2‐Yl)benzo[d]Oxazole], the IC50 in assay [1] (setting [3]) was 98.3 ± 1.57 µM; in assay [1] (setting [4]), 99 ± 1 µM; in assay [1] (setting [5]) it was 99 ± 1.96 µM; in assay [2] (setting [6]), 3.44 ± 1.12 µM; in assay [2] (setting [7]) it was 3.7 ± 1.12 µM; in assay [2] (setting [8]), 3.03 ± 0.76 µM.

Regarding `COC(=O)c1ccc2nc(-c3ccc(-c4nc5ccc(C)cc5o4)[nH]3)oc2c1` [Compound B16, Methyl 2‐(5‐(6‐Methylbenzo[d]Oxazol‐2‐Yl)‐1H‐Pyrrol‐2‐Yl)benzo[d]Oxazole‐6‐Carboxylate], the IC50 in assay [1] (setting [3]) was 95.3 ± 1.03 µM; in assay [1] (setting [4]), 99.3 ± 1.07 µM; in assay [1] (setting [5]) it was 97.3 ± 1.09 µM; in assay [2] (setting [6]), 2.82 ± 2.14 µM; in assay [2] (setting [7]), 3.03 ± 1.35 µM; in assay [2] (setting [8]), 2.93 ± 1.02 µM.

In the case of `Clc1ccc2oc(-c3ccc(-c4nc5ccccc5o4)[nH]3)nc2c1` [Compound B9, 2‐(5‐(Benzo[d]Oxazol‐2‐Yl)‐1H‐Pyrrol‐2‐Yl)‐5‐Chlorobenzo[d]Oxazole], the IC50 in assay [1] (setting [3]) was 95.4 ± 1.29 µM; in assay [1] (setting [4]), 101 ± 1.38 µM; in assay [1] (setting [5]) it was 97.5 ± 1.99 µM; in assay [2] (setting [6]) it was 3.23 ± 0.63 µM; in assay [2] (setting [7]) it was 3.84 ± 1.12 µM; in assay [2] (setting [8]) it was 2.77 ± 1.23 µM.
